From patent US20100056526A1, “HETEROMONOCYCLIC COMPOUND AND USE THEREOF” (Takeda Pharmaceutical Company Limited, priority 2006, published 2010)
Where a name gives a salt, the structure may show the parent alone. Read-outs that look alike come from different tables or passages of the source.

Key:
human AT1 receptor = target: T1, human AT1 receptor (Homo sapiens, UniProt P30556); assay: Binding assay using human AT1 receptor-expressing CHO-K1 cell membrane fraction ([125I]-angiotensin II); settings: 22.5 pM [125I]-angiotensin II, 9 μg AT1 membrane, 1 hr room temperature; read-out: AT1 receptor binding inhibitory action (IC50 (nM))
T1 construct: expressed in transfected cells; host or cells: CHO-K1
T1 sequence (P30556 1-359): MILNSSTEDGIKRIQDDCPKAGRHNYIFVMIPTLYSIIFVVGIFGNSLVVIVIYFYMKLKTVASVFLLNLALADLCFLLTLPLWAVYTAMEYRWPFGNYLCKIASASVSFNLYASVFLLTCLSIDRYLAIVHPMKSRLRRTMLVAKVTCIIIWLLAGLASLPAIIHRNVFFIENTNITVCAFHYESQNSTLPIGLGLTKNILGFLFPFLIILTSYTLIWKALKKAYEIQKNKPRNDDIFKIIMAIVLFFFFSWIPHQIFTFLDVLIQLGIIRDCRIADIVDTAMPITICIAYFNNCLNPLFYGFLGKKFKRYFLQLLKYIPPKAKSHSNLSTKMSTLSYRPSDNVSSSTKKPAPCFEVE
In short: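 CHO-K1 membranes stably expressing AT1 (9 μg) incubated with 22.5 pM [125I]-angiotensin II and compound in 50 mM Tris pH 7.4, 10 mM MgCl2, with or without 0.3 mg/mL fatty acid-free BSA, 1 hr at room temperature. Bound radioactivity counted after GF/C filtration; nonspecific binding with 1 μM CV-11974; IC50 calculated.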

PPARγ = target: T2, PPARγ (Homo sapiens, UniProt P37231); assay: Evaluation of PPARγ activating action (luciferase reporter in PPARγ:RXRα:4ERPP/CHO-K1 cells); assay type: cell-based; settings: CHO-K1, 24 h, read-out: PPARγ activating action (activation % (10^−6 M))
T2 construct: expressed in transfected cells; host or cells: CHO-K1
T2 sequence (P37231 1-477 isoform P37231-2): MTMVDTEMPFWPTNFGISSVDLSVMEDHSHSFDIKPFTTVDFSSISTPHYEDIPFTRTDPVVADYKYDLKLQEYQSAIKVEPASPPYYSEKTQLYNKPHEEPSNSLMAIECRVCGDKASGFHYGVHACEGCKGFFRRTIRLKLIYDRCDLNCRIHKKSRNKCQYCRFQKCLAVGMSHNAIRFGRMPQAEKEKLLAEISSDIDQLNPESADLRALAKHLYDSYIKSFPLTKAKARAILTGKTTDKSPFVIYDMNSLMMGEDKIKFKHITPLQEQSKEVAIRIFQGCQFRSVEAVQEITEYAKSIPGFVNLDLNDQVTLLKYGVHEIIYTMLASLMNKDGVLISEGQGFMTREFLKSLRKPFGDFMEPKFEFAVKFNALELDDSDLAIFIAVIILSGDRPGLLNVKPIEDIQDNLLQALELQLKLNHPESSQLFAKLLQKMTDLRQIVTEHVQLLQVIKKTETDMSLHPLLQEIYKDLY
T2 sequence (P19793 1-462 partner): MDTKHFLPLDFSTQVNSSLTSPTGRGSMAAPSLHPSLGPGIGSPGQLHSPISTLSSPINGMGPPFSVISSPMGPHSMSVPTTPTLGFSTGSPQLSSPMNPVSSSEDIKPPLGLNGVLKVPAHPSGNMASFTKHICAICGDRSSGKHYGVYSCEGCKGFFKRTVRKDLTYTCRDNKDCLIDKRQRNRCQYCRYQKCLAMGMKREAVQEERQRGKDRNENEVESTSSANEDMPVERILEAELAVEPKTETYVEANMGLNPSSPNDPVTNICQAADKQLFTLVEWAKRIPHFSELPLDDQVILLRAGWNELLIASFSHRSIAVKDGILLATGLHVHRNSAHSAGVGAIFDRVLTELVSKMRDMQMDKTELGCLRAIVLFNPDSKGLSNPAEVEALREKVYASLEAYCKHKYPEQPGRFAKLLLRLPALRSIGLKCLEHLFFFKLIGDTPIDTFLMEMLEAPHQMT
In short: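 CHO-K1 cells stably carrying PPARγ, RXRα and a 4ERPP luciferase reporter were treated with compound for 1 day at 37 °C in F12 medium with 0.1% fatty acid-free BSA. Luciferase activity was read and scaled between no compound (0%) and reference agonist compound X at 1 μM (100%).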

[1] = test compound 10^−6 M, luciferase activity relative to control compound X (1 μM) = 100%, non-administration group = 0%

Row | Structure (SMILES) | IC50 (human AT1 receptor) [nM] | activation at 1 µM (PPARγ; [1]) [%] | activation at 1 µM (PPARγ) [%]
1 | CCCc1nc(C)c(Oc2ccc(OC)cc2)c(=O)n1Cc1ccc(-c2ccccc2-c2noc(O)n2)cc1 [Example 476, 5-(4-methoxyphenoxy)-6-methyl-3-{[2′-(5-oxo-4,5-dihydro-1,2,4-oxadiazol-3-yl)biphenyl-4-yl]methyl}-2-propylpyrimidin-4(3H)-one potassium salt] | 2.1 | – | 18.5
2 | CCCc1nc(C)n(-c2ccc(OC(C)CC)cc2)c(=O)c1Cc1ccc(-c2ccccc2-c2noc(=O)[nH]2)cc1 (centres unmarked) [Example 271, 3-(4-sec-butoxyphenyl)-2-methyl-5-{[2′-(5-oxo-4,5-dihydro-1,2,4-oxadiazol-3-yl)biphenyl-4-yl]methyl}-6-propylpyrimidin-4(3H)-one] | 1.9 | 37.1 | –
3 | CCCc1nc(C)c(CC2CCCCO2)c(=O)n1Cc1ccc(-c2ccccc2-c2noc(=O)[nH]2)cc1 (centres unmarked) [Example 7, 6-methyl-3-{[2′-(5-oxo-4,5-dihydro-1,2,4-oxadiazol-3-yl)biphenyl-4-yl]methyl}-2-propyl-5-(tetrahydro-2H-pyran-2-ylmethyl)pyrimidin-4(3H)-one] | 1.4 | 42.6 | –
4 | CCCc1nc(C)n(-c2ccc3c(c2)C(O)CC(C)(C)O3)c(=O)c1Cc1ccc(-c2ccccc2-c2noc(=O)[nH]2)cc1 (centres unmarked) [Example 144, 3-(4-hydroxy-2,2-dimethyl-3,4-dihydro-2H-chromen-6-yl)-2-methyl-5-{[2′-(5-oxo-4,5-dihydro-1,2,4-oxadiazol-3-yl)biphenyl-4-yl]methyl}-6-propylpyrimidin-4(3H)-one] | 1.5 | 22.7 | –

Second part, led by results:

Row | IC50 (human AT1 receptor) [nM] | activation at 1 µM (PPARγ; [1]) [%] | Structure (SMILES) | activation at 1 µM (PPARγ) [%]
5 | 2 | 21.8 | CCCCc1nc(C)n(-c2ccoc2)c(=O)c1Cc1ccc(-c2ccccc2-c2noc(=O)[nH]2)cc1 [Example 206, 6-butyl-3-(3-furyl)-2-methyl-5-{[2′-(5-oxo-4,5-dihydro-1,2,4-oxadiazol-3-yl)biphenyl-4-yl]methyl}pyrimidin-4(3H)-one] | –
6 | 2.1 | 48.6 | CCCc1nc(C)n(-c2ccc3c(c2)CC(C)(C)O3)c(=O)c1Cc1ccc(-c2ccccc2-c2noc(=O)[nH]2)cc1Cl [Example 397, 5-{[3-chloro-2′-(5-oxo-4,5-dihydro-1,2,4-oxadiazol-3-yl)biphenyl-4-yl]methyl}-3-(2,2-dimethyl-2,.3-dihydro-1-benzofuran-5-yl)-2-methyl-6-propylpyrimidin-4(3H)-one] | –
7 | 2.5 | 35.7 | CCCc1nc(CC)c(-c2ccc(OC(C)C)nc2)c(=O)n1Cc1ccc(-c2ccccc2-c2noc(O)n2)cc1F [Example 467, 6-ethyl-3-{[3-fluoro-2′-(5-oxo-4,5-dihydro-1,2,4-oxadiazol-3-yl)biphenyl-4-yl]methyl}-5-(6-isopropoxypyridin-3-yl)-2-propylpyrimidin-4(3H)-one] | –
8 | 1.7 | 16 | CCCc1nc(CC)n(-c2ccc(OC(COCC)COCC)cc2)c(=O)c1Cc1ccc(-c2ccccc2-c2noc(=O)[nH]2)cc1 [Example 395, 3-{4-[2-ethoxy-1-(ethoxymethyl)ethoxy]phenyl}-2-ethyl-5-{[2′-(5-oxo-4,5-dihydro-1,2,4-oxadiazol-3-yl)biphenyl-4-yl]methyl}-6-propylpyrimidin-4(3H)-one] | –
9 | 1.2 | 37.5 | CCCc1nc(CC)n(-c2ccc(OC3CCC(O)C3)cc2)c(=O)c1Cc1ccc(-c2ccccc2-c2noc(=O)[nH]2)cc1 (centres unmarked) [Example 425, 2-ethyl-3-{4-[(3-hydroxycyclopentyl)oxy]phenyl}-5-{[2′-(5-oxo-4,5-dihydro-1,2,4-oxadiazol-3-yl)biphenyl-4-yl]methyl}-6-propylpyrimidin-4(3H)-one] | –
10 | 2.6 | 37.5 | CCCc1ncn(-c2ccc3c(c2)CC(C)(C)O3)c(=O)c1Cc1ccc(-c2ccccc2-c2noc(=O)[nH]2)cc1 [Example 178, 3-(2,2-dimethyl-2,3-dihydro-1-benzofuran-5-yl)-5-{[2′-(5-oxo-4,5-dihydro-1,2,4-oxadiazol-3-yl)biphenyl-4-yl]methyl}-6-propylpyrimidin-4(3H)-one] | –
